Measured values as given in paper PMC11939078, “TAK-994 mechanistic investigation into drug-induced liver injury” (Toxicological Sciences, 2025).
Read-outs that look alike come from different tables or passages of the source.

How the values were obtained:
human liver microtissues [1] = experiment: Glutathione depletion (BSO) assay in liver microtissues; assay type: cell-based
Description: (§1) Toxicology of TAK-994 was assessed using lnSphero’s 3D lnSight Human Liver models, based on N-acetyl-L-cysteine causality assay, glutathione depletion assay, and lipopolysaccharide (LPS)-sensitization assay. Hepatotoxicity was assessed in 7- and 14-day mono and co-culture models, in which cells were exposed to TAK-994 (0.1, 0.3, 1, 3.16, 10, 31.6, or 100 μM) […].
Co-culture model cells were pretreated with BSO (150 μM in DMSO) and then exposed to TAK-994 (0.1, 0.3, 1, 3.16, 10, 31.6, or 100 μM in 0.5% DMSO) in the presence and absence of BSO for 14 days (during the treatment period, TAK-994 with or without BSO was administered on Days 0, 5, and 9). Six replicates were tested for each condition. The vehicle control was 0.5% DMSO and the positive control was acetaminophen (0.6, 1.25, 2.5, or 5 mM in Medium TOX). Cellular ATP content was measured in the cell lysate on Day 14 of treatment. LDH release was measured on Days 5, 9, and 14 in the cell supernatant. For cells administered BSO alone, cellular ATP content was also measured on Day 3 and LDH release was also determined between Days 0 to 3. LDH measurements were normalized to lysed controls. Cellular GSH content was measured by GSH-Glo™ Glutathione Assay (Promega) on Days 0, 3, and 14 in the positive control group.
(§2) Intracellular ATP content in model lysates was measured with the CellTiter-Glo® 2.0 Cell Viability Assay (Catalogue No. G9243, Promega). The Bioluminescent LDH Release Toxicity Assay Kit (Catalogue No. J2380, Promega) was used to assess extracellular LDH release and normalized to lysed controls. ATP, LDH, GSH, and triglycerides were measured according to internal technical operating procedures.

human liver microtissues [2] = experiment: Human liver microtissue (co-culture) cytotoxicity, cellular ATP; assay type: cell-based; conditions: for detection of hepatotoxicity by HepG2 72-h / human liver microtissue assays: retrospective application
Description: as §1
(§3) The test system was Human 3D InSight Liver Models, production ID hLiMT_589, cryopreserved primary human hepatocytes (Lot IPDH_18; single donor) in monoculture or in co-culture with cryopreserved primary human nonparenchymal cells (Lot IPHN_17; single donor). Human liver microtissues are composed of roughly 1000 hepatocytes and 1000 non-parenchymal live cells. Non-parenchymal liver cell fractions are expected to be composed of Kupffer cells and liver endothelial cells however, these were not identified.
The culture medium was 3D InSight Human Liver Maintenance Medium TOX (Catalogue No. CS-07-001, InSphero). The treated cells in 96-well Akura™ plates were incubated in a humidified cell culture incubator (37°C, 5% CO2).
(§4) Mono and co-culture model cells were exposed to TAK-994 (0.1, 0.3, 1, 3.16, 10, 31.6, or 100 μM in 0.5% DMSO) for 7 days (TAK-994 administered on Days 0 and 4) or 14 days (TAK-994 administered on Days 0, 5, and 9). Six replicates were tested for each condition. The vehicle control was 0.5% DMSO, and the positive control was chlorpromazine (0.1, 0.3, 1, 3.16, 10, 31.6, or 100 μM in DMSO). Cellular ATP content was measured in the cell lysate on Days 7 or 14 of treatment. LDH release was measured in the cell supernatant on Days 4 and 7 or on Days 5, 9, and 14 and normalized to lysed controls.
as §2

[3] = HepG2 72-h cytotoxicity assay (glucose medium, ATP content); assay type: cell-based, human; conditions: human, HepG2 cells
Description: (§5) Cytotoxicity of TAK-994 was evaluated in glucose or galactose medium after 24 h and in glucose medium after 72 h in HepG2 cells, with cryopreserved HepG2 cells thawed and seeded onto assay plates at 5,000 cells/well in glucose or galactose medium for the 24-h assay and at 2,500 cells/well in glucose medium for the 72-h assay. After ∼24 h of incubation at 37 °C in 5% CO2, the cells were incubated with test solutions under the same conditions for 24 h for the plate with 5,000 cells/well or 72 h for the plate with 2,500 cells/well. Cytotoxicity of TAK-994 was also assessed using HepG2 cells with CYP3A4 overexpression using a lentivirus vector. HepG2/CYP3A4 cells were incubated in media containing TAK-994 (0.09 to 200 μM), positive control aflatoxin B1 (0.04 to 80 μM), or 1.0% DMSO (negative control). In both cytotoxicity assays, adenosine triphosphate (ATP) content was assessed after incubation using a commercial luminescence assay (CellTiter-Glo; Promega Co., Ltd, WI, United States).
HepG2 cells (American Type Culture Collection [ATCC, VA, USA]) were acclimated to Dulbecco's Modified Eagle Medium (DMEM; Thermo Fisher Scientific, MA, USA) with either high glucose or high galactose and containing 10% FBS for 1 week then cryopreserved. The cryopreserved HepG2 cells were thawed, cultured for 24 hours, then seeded at 5000 cells/well in glucose or galactose medium for the 24-hour assay and at 2500 cells/well in glucose medium for the 72-hour assay onto the assay plates. After approximately 24 hours of incubation at 37°C in 5% CO2, the cells were incubated with test solutions under the same conditions for 24 hours for the plate with 5000 cells/well or 72 hours for the plate with 2500 cells/well. After the incubation, CellTiter-Glo® (Promega Co., Ltd., WI, USA) was added to the assay plates, cells were incubated for 30 minutes, and luminescence was recorded to measure the ATP content using an EnVision plate reader (PerkinElmer Co., Ltd., MA, USA). The test compound TAK-994 was evaluated at concentrations of 0.046, 0.14, 0.41, 1.2, 3.7, 11, 33, and 100 μM. Positive controls rotenone and staurosporine were purchased from FUJIFILM Wako Pure Chemical Corporation (Osaka, Japan) and evaluated at concentrations of 0.046, 0.14, 0.41, 1.2, 3.7, 11, 33, and 100 μM in DMSO (rotenone) or 0.0046, 0.014, 0.041, 0.12, 0.37, 1.1 , 3.3, and 10 μM in DMSO (staurosporine). Two experiments were conducted at each concentration.
Inhibition rate (%) = (1-mean of sample values / mean of Max values) × 100, where Max values = vehicle control.

[4] = HepG2 Glu/Gal 24-h cytotoxicity (mitochondrial toxicity); assay type: cell-based, human; conditions: human, HepG2 cells
Description: as §5
HepG2 cells (American Type Culture Collection [ATCC, VA, USA]) were acclimated to Dulbecco's Modified Eagle Medium (DMEM; Thermo Fisher Scientific, MA, USA) with either high glucose or high galactose and containing 10% FBS for 1 week then cryopreserved. […] After the incubation, CellTiter-Glo® (Promega Co., Ltd., WI, USA) was added to the assay plates, cells were incubated for 30 minutes, and luminescence was recorded to measure the ATP content using an EnVision plate reader (PerkinElmer Co., Ltd., MA, USA). The test compound TAK-994 was evaluated at concentrations of 0.046, 0.14, 0.41, 1.2, 3.7, 11, 33, and 100 μM. Positive controls rotenone and staurosporine were purchased from FUJIFILM Wako Pure Chemical Corporation (Osaka, Japan) and evaluated at concentrations of 0.046, 0.14, 0.41, 1.2, 3.7, 11, 33, and 100 μM in DMSO (rotenone) or 0.0046, 0.014, 0.041, 0.12, 0.37, 1.1 , 3.3, and 10 μM in DMSO (staurosporine). […]

Hepatocyte spheroids = experiment: Hepatocyte spheroid (monoculture, no nonparenchymal cells) cytotoxicity, cellular ATP; assay type: cell-based, human; conditions: Homo sapiens, Hepatocyte; cellular ATP; read-out: IC50, hepatocyte spheroids (Fig. 2B)
Description: as §1, §3, §4, §2

[5] = test system: human liver microtissues + FFA; experiment: Hepatotoxicity in steatosis liver model (free fatty acids); assay type: cell-based; conditions: Homo sapiens, 336 h; free fatty acids added to medium; read-out: IC50, co-culture (14 days) + FFA (Fig. 3A)
Description: as §4, with “for” for “for 7 days (TAK-994 administered on Days 0 and 4) or”, “9). The cell culture medium was supplemented with free fatty acids of 100 μM of Oleic acid and 66 μM of Palmitic acid.” for “9).”, “Day” for “Days 7 or”, “Days” for “Days 4 and 7 or on Days”, “controls. Cellular triglyceride content was measured in the microtissues on Day 14.” for “controls.”
as §2

human hepatocytes = test system: human hepatocytes; parameters: method as in Thompson et al. 2012; conditions: ref Thompson et al. 2012; cited from earlier work

## CC(=O)Nc1ccc(O)cc1 [acetaminophen, reference compound]
Human liver microtissues [1]
  sensitization of liver microtissues by buthionine sulfoximine depletion: induced liver microtissue sensitivity

## COc1cccc([C@H]2O[C@H](CC(=O)N3CCC(CC(=O)O)CC3)C(=O)N(CC(C)(C)COC(C)=O)c3ccc(Cl)cc32)c1OC [TAK-475]
Human liver microtissues [2]; Homo sapiens, 336 h, read-out: Liver microtissue toxicity for 14 days IC50
  IC50: 58.6 µM
Human liver microtissues [2]
  detection of hepatotoxicity by HepG2 72-h / human liver microtissue assays: detected
[3]
  IC50 at 72 h: > 100 µM
[4]
  IC50 at 24 h: > 100 µM

## Cc1cc(OCCCS(C)(=O)=O)cc(C)c1-c1cccc(COc2ccc3c(c2)OC[C@H]3CC(=O)O)c1 [TAK-875]
Human liver microtissues [2]; read-out: Liver microtissue toxicity for 14 days IC50
  IC50: 12.7 µM
Human liver microtissues [2]
  detection of hepatotoxicity by HepG2 72-h / human liver microtissue assays: detected
[3]
  IC50 at 72 h: > 100 µM
[4]
  IC50 at 24 h: > 100 µM

## CN(C)CCCN1c2ccccc2Sc2ccc(Cl)cc21 [Chlorpromazine, chlorpromazine, reference compound]
Human liver microtissues [2]; Homo sapiens, 336 h, without FFA, read-out: IC50, co-culture (14 days) (Fig. 3A)
  IC50: 6.16 µM
Human liver microtissues [2]; Homo sapiens, cellular ATP, read-out: IC50, liver microtissues (Fig. 2B)
  IC50: 7.64 µM
Hepatocyte spheroids
  IC50: 9.26 µM
[5]
  IC50: 8.35 µM

## Cc1c(C(=O)NN2CCCCC2)nn(-c2ccc(Cl)cc2Cl)c1-c1ccc(Cl)cc1 [rimonabant]
Human hepatocytes
  CVB of marketed drugs without high risk of hepatotoxicity: elevated CVB
